The results in this text go back to DBAASP.

Common to all, as to test: ≥ marks a high value that may be exact or a test limit, other limits are often not marked, values filed in µg/mL are converted to µM
The test system of assay [1] is Bacillus subtilis IFO 3134.
Assay [2] has as its system Escherichia coli IFO 12734.
In assay [3] the test system is Pseudomonas aeruginosa IFO 12582.
Assay [4] relates to Staphylococcus aureus IFO 12732.
Another assay relates to Escherichia coli W160-37.
The next assay has as its system Staphylococcus aureus.
Assay [5] concerns Acinetobacter baumannii NM109.
The subject of assay [6] is Acinetobacter baumannii NM124.
For assay [7], the system named is Acinetobacter baumannii NM35.
In assay [8] the test system is Acinetobacter baumannii NM75.
For assay [9], the system named is Acinetobacter baumannii NM8.
In assay [10] the test system is Candida albicans ATCC 90028.
Assay [11] deals with Enterococcus faecalis ATCC 29212.
Assay [12] concerns Erwinia amylovora PMV 6076.
Assay [13] deals with Escherichia coli ATCC 25726.
The subject of assay [14] is Klebsiella pneumoniae ATCC 700603.
Assay [15] has as its system Pseudomonas aeruginosa ATCC 27853.
The subject of assay [16] is Pseudomonas syringae pv. actinidiae Psa3700.1.1.
The test system of assay [17] is Pseudomonas syringae pv. syringae EPS 94.
Assay [18] concerns Staphylococcus aureus 127/08.
In assay [19] the test system is Staphylococcus aureus 145/08.
Assay [20] concerns Staphylococcus aureus 274/08.
For assay [21], the system named is Staphylococcus aureus ATCC 25923.
Assay [22] has as its system Staphylococcus aureus S908.
The subject of assay [23] is Staphylococcus aureus T4/6.
The subject of assay [24] is Staphylococcus aureus V4180.
Assay [25] concerns Staphylococcus epidermidis RP62A/1.
Assay [26] concerns Staphylococcus epidermidis RP62A.
Assay [27] has as its system Staphylococcus epidermidis T37/8.
Assay [28] relates to Staphylococcus epidermidis T6/19.
The test system of assay [29] is Stenotrophomonas maltophilia B32/1.
Assay [30] deals with Stenotrophomonas maltophilia B32/4.
In assay [31] the test system is Stenotrophomonas maltophilia B5/5.
Assay [32] relates to Stenotrophomonas maltophilia B6/2.
For assay [33], the system named is Stenotrophomonas maltophilia U8908.
In assay [34] the test system is Xanthomonas arboricola pv. pruni CFBP 5563.
Assay [35] concerns Xanthomonas campestris pv. Vesicatoria 2133-2.
The test system of assay [36] is Xanthomonas fragariae Xf349-9A.
Assay [37] has as its system Bacillus subtilis PCI 219.
Assay [38] has as its system Escherichia coli NIHJ JC-2.
For assay [39], the system named is Pseudomonas aeruginosa U-31.
For assay [40], the system named is Staphylococcus aureus FDA 209P.
In assay [41] the test system is Staphylococcus aureus A170.
The test system of assay [42] is Staphylococcus epidermidis.

Values after ≈ are worked out from the molar mass of the structure shown. Where only a bound is given, the exact number is not on record here.

In the case of `CC[C@H](C)[C@H](NC(=O)[C@H](C)NC(=O)[C@@H]1CCCN1C(=O)[C@@H](NC(=O)[C@@H](NC(=O)[C@H](Cc1cnc[nH]1)NC(=O)[C@H](C)NC(=O)[C@H](C)NC(=O)[C@@H](NC(=O)[C@H](CCCCN)NC(=O)[C@H](C)NC(=O)[C@H](CC(C)C)NC(=O)[C@@H](NC(=O)CNC(=O)[C@H](Cc1ccccc1)NC(=O)[C@H](C)N)C(C)C)C(C)C)C(C)C)C(C)C)C(=O)N[C@@H](C)C(=O)N[C@@H](CCC(=O)O)C(=O)N[C@@H](Cc1cnc[nH]1)C(=O)N[C@@H](Cc1ccccc1)C(N)=O` [AFGVLAKVAAHVVPAIAEHF], the MIC in [1], in assay [2], in [3] and in [4] was at least 64 µM in each case.

As for `CC[C@H](C)[C@H](NC(=O)[C@H](Cc1c[nH]c2ccccc12)NC(=O)[C@H](CCCCN)NC(=O)[C@H](CO)NC(=O)[C@H](CC(C)C)NC(=O)[C@H](Cc1ccccc1)NC(=O)[C@@H](NC(=O)[C@H](CCCCN)NC(=O)[C@H](CC(C)C)NC(=O)[C@H](CCCCN)NC(=O)[C@@H]1CCCN1)[C@@H](C)O)C(=O)NCC(=O)O` [PKLKTFLSKWIG], the MIC against Escherichia coli W160-37 was at least 107 µM; against Staphylococcus aureus, 107 µM (≈ 152 µg/mL).

For the compound `CC[C@H](C)[C@H](NC(=O)[C@H](C)NC(=O)[C@H](CCCCN)NC(=O)CNC(=O)[C@@H](NC(=O)[C@H](Cc1cnc[nH]1)NC(=O)CNC(=O)[C@H](CC(C)C)NC(=O)[C@H](CC(C)C)NC(=O)[C@@H](NC(=O)CNC(=O)[C@@H](NC(=O)[C@H](CC(C)C)NC(=O)CN)C(C)C)[C@@H](C)O)[C@@H](C)CC)C(=O)N[C@@H](CC(C)C)C(=O)N[C@@H](CO)C(N)=O` [GLVGTLLGHIGKAILS], the MIC is at least 125 µM in assay [5]; at least 125 µM in assay [6]; at least 125 µM in [7]; at least 62.5 µM in [8]; at least 125 µM in [9]; at least 62.5 µM in assay [10]. Besides, the minimum inhibitory concentration (MIC) was 62.5 µM (≈ 96.7 µg/mL) in assay [11]; at least 35.4 µM in [12]; at least 125 µM in assay [13]; 250 µM (≈ 387 µg/mL) in assay [14]; 250 µM (≈ 387 µg/mL) in assay [15]; at least 50 µM in assay [16]. Also, the MIC in assay [17] is at least 50 µM; in assay [18], 8 µM (≈ 12.4 µg/mL); in [19] it was 16 µM (≈ 24.8 µg/mL); in [20] it was 16 µM (≈ 24.8 µg/mL); in assay [21], 16 µM (≈ 24.8 µg/mL); in [22], 16 µM (≈ 24.8 µg/mL). Besides, the MIC came to 16 µM (≈ 24.8 µg/mL) in assay [23]; 16 µM (≈ 24.8 µg/mL) in [24]; 8 µM (≈ 12.4 µg/mL) in [25]; 16 µM (≈ 24.8 µg/mL) in [26]; 16 µM (≈ 24.8 µg/mL) in assay [27]; 8 µM (≈ 12.4 µg/mL) in assay [28]. The minimal inhibitory concentration (MIC) in assay [29] is at least 62.5 µM; in assay [30], at least 62.5 µM; in assay [31], at least 62.5 µM; in [32], 31.3 µM (≈ 48.4 µg/mL); in assay [33], at least 62.5 µM; in assay [34] it was 8.8 µM (≈ 13.6 µg/mL). The minimal inhibitory concentration (MIC) in assay [35] is 8.8 µM (≈ 13.6 µg/mL); in assay [36] it was at least 35.4 µM.

For `CC(C)C[C@H](NC(=O)[C@H](CCCCN)NC(=O)[C@H](CCCCN)NC(=O)[C@H](CC(C)C)NC(=O)[C@H](CC(C)C)NC(=O)[C@H](CCCCN)NC(=O)[C@H](CCCCN)NC(=O)[C@H](Cc1c[nH]c2ccccc12)NC(=O)[C@H](CC(C)C)NC(=O)[C@H](CCCCN)NC(=O)[C@H](CC(C)C)NC(=O)[C@H](CC(C)C)NC(=O)[C@H](CCCCN)NC(=O)[C@H](CCCCN)NC(=O)[C@H](CC(C)C)NC(=O)[C@H](CC(C)C)NC(=O)[C@@H](N)CCCCN)C(=O)N[C@@H](CCCCN)C(=O)O` [KLLKKLLKLWKKLLKKLK], the MIC in [37], in assay [38], in [39] and in assay [40] was at least 44.2 µM each time.

Consider `CC[C@H](C)[C@H](NC(=O)[C@@H]1CCCN1C(=O)[C@H](CC(C)C)NC(=O)[C@@H](N)CC(C)C)C(=O)N[C@H](C(=O)N[C@H](C(=O)N[C@@H](CC(N)=O)C(=O)N[C@@H](CC(C)C)C(=O)N[C@@H](CC(C)C)C(=O)N[C@@H](CCCCN)C(=O)N[C@@H](CO)C(=O)N[C@@H](CC(C)C)C(=O)N[C@@H](CC(C)C)C(=O)O)C(C)C)C(C)C` [LLPIVVNLLKSLL], for which the values for the MIC in [41] and in assay [42] were 6.97 µM (≈ 10 µg/mL) and 13.9 µM (≈ 20 µg/mL), respectively.

One may read the MIC as the lowest concentration that inhibits growth of the organism. Low readings indicate inhibition by little substance, high ones a need for much substance.
